Data: patent publication US6716851B2, “Substituted 2-aryl-4-arylaminopyrimidines and analogs as activators or caspases and inducers of apoptosis and the use thereof” (Cytovia, Inc., priority 2000, dated 2004)

Key:
ZR-75-1 cells = assay: Caspase cascade activation (N-(Ac-DEVD)-N'-ethoxycarbonyl-R110 fluorogenic substrate) in ZR-75-1 cells; type: cell-based, Human; conditions: ZR-75-1, 48 h incubation; for EC50: Homo sapiens, caspase activation potency; for ZR Ratio 48 hr: caspase activity: ratio of net RFU of test compound to control
How it was run: (§1)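 Cells (0.65×10^6/ml) exposed 48 h at 37 °C to compound (0.016-10 μM final), then lysed with 14 μM DEVD-R110 substrate buffer (PIPES pH 7.2, DTT, lysolecithin) for 3 h at room temperature. Net fluorescence (485/530 nm) relative to control; EC50 by sigmoidal dose-response.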

T-47D cells = assay: Caspase cascade activation (N-(Ac-DEVD)-N'-ethoxycarbonyl-R110 fluorogenic substrate) in T-47D cells; type: cell-based, Human; conditions: 48 h incubation; for EC50: Homo sapiens, T47D, caspase activation potency, read-out: T47 EC50; for T47 Ratio 48 hr: caspase activity: ratio of net RFU of test compound to control
How it was run: as §1

Row | Structure (SMILES) | EC50 (ZR-75-1 cells) [nM] | ZR Ratio 48 hr (ZR-75-1 cells) | EC50 (T-47D cells) [nM] | T47 Ratio 48 hr (T-47D cells)
1 | Cc1cc(Nc2cc(C(F)(F)F)nc(-c3ccccn3)n2)c(C)cc1O.Cl [Example 147, 4-(2,5-Dimethyl-4-hydroxyanilino)-2-(2-pyridinyl)-6-(trifluoromethyl)pyrimidine hydrochloride] | 204 | 8.4 | 335 | 13.3
2 | Cc1cc(Nc2cc(C(F)(F)F)nc(-c3cnccn3)n2)c(C)cc1O.Cl [Example 148, 4-(2,5-Dimethyl-4-hydroxyanilino)-(2-pyrazinyl)-6-(trifluoromethyl)pyrimidine hydrochloride] | 243 | 8.4 | 412 | 13.8
3 | Cc1cc(Nc2cc(C(F)(F)F)nc(-c3ccncc3)n2)c(C)cc1O [Example 149, 4-(2,5-Dimethyl-4-hydroxyanilino)-2-(4-pyridinyl)-6-(trifluoromethyl)pyrimidine] | 46 | 10.0 | 75 | 16.0
4 | COc1cc(Nc2cc(C(F)(F)F)nc(-c3ccccn3)n2)c(OC)cc1Cl.Cl [Example 150, 4-(4-Chloro-2,5-dimethoxyanilino)-2-(2-pyridinyl)-6-(trifluoromethyl)pyrimidine hydrochloride] | 133 | 9.7 | 135 | 11.0
5 | COc1cc(Nc2cc(C(F)(F)F)nc(-c3cnccn3)n2)c(OC)cc1Cl.Cl [Example 151, 4-(4-Chloro-2,5-dimethoxyanilino)-(2-pyrazinyl)-6-(trifluoromethyl)pyrimidine hydrochloride] | 276 | 8.6 | 388 | 12.0
6 | COc1cc(C)c(Nc2cc(C(F)(F)F)nc(-c3ccccn3)n2)cc1OC.Cl [Example 152, 4-(4,5-Dimethoxy-2-methylanilino)-2-(2-pyridinyl)-6-(trifluoromethyl)pyrimidine hydrochloride] | 212 | 8.6 | 35 | 14.6
7 | COc1cc(C)c(Nc2cc(C(F)(F)F)nc(-c3cnccn3)n2)cc1OC.Cl [Example 153, 4-(4,5-Dimethoxy-2-methylanilino)-2-(2-pyrazinyl)-6-(trifluoromethyl)pyrimidine hydrochloride] | 146 | 9.3 | 43 | 15.7
8 | COc1cc(C)c(Nc2cc(C(F)(F)F)nc(-c3ccncc3)n2)cc1OC.Cl [Example 154, 4-(4,5-Dimethoxy-2-methylanilino)-2-(4-pyridinyl)-6-(trifluoromethyl)pyrimidine hydrochloride] | 14 | 7.9 | 22 | 6.1
9 | Cl.FC(F)(F)Oc1cccc(Nc2cc(C(F)(F)F)nc(-c3ccccn3)n2)c1 [Example 156, 4-(3-Trifluoromethoxyanilino)-2-(2-pyridinyl)-6-(trifluoromethyl)pyrimidine hydrochloride] | 2260 | 4.1 | > 5000 | 1.7
10 | COc1cc(C)c(Nc2cc(C(F)(F)F)nc(-c3cccnc3)n2)cc1OC [Example 157, 4-(4,5-Dimethoxy-2-methylanilino)-2-(3-pyridinyl)-6-(trifluoromethyl)pyrimidine] | 197 | 6.4 | 43 | 6.6
11 | COc1cc(Nc2cc(C(F)(F)F)nc(-c3ccncc3)n2)c(OC)cc1Cl.Cl [Example 158, 4-(4-Chloro-2,5-dimethoxyanilino)-2-(4-pyridinyl)-6-(trifluoromethyl)pyrimidine hydrochloride] | 133 | 6.0 | 509 | 9.5
12 | COc1cccc(N(C)c2cc(C(F)(F)F)nc(-c3ccccn3)n2)c1 [Example 160, 4-(N-Methyl-3-methoxyanilino)-2-(2-pyridinyl)-6-trifluoromethyl-pyrimidine] | > 5000 | 1.4 | > 5000 | 1.0
13 | COc1cc(Nc2cc(C(F)(F)F)nc(-c3ccncc3)n2)cc(OC)c1 [Example 161, 4-(3,5-Dimethoxyanilino)-2-(4-pyridinyl)-6-trifluoromethyl-pyrimidine] | 86 | 5.1 | 79 | 10.7
14 | COc1ccc(Cl)cc1Nc1cc(C(F)(F)F)nc(-c2ccncc2)n1 [Example 162, 4-(5-Chloro-2-methoxyanilino)-2-(4-pyridinyl)-6-trifluoromethyl-pyrimidine] | 360 | 7.3 | 272 | 11.3
15 | COc1cc(Nc2cc(C(F)(F)F)nc(-c3cc(Cl)nc(Cl)c3)n2)cc(OC)c1 [Example 163, 4-(3,5-Dimethoxyanilino)-2-(2,6-dichloro-4-pyridinyl)-6-trifluoromethylpyrimidine] | > 5000 | 1.6 | > 5000 | 1.1
16 | COc1ccc(Cl)c(Nc2cc(C(F)(F)F)nc(-c3cc(Cl)nc(Cl)c3)n2)c1 [Example 164, 4-(2-Chloro-5-methoxyanilino)-2-(2,6-dichloro-4-pyridinyl)-6-trifluoromethyl-pyrimidine] | > 5000 | 1.3 | > 5000 | 1.3
17 | FC(F)(F)c1cc(Nc2ccc3[nH]ccc3c2)nc(-c2cccnc2)n1 [Example 166, 4-(1 H-5-Indolyl-amino)-2-(3-pyridinyl)-6-trifluoromethyl-pyrimidine] | 532 | 3.3 | 870 | 8.0
18 | COc1ccc(Nc2cc(C)nc(-c3ccccn3)n2)cc1OC [Example 176, 4-(3,4-Dimethoxyanilino)-6-methyl-2-(2-pyridinyl)pyrimidine] | > 5000 | 1.9 | 149 | 4.5
19 | COc1ccc(Cl)cc1Nc1cc(C(F)(F)F)nc(-c2cccnc2)n1 [Example 180, 4-(5-Chloro-2-methoxyanilino)-2-(3-pyridinyl)-6-trifluoromethylpyrimidine] | 698 | 8.7 | 637 | 15.1
20 | COc1cc(Nc2cc(C(F)(F)F)nc(-c3cnccn3)n2)cc(OC)c1 [Example 183, 4-(3,5-Dimethoxyanilino)-2-(2-pyrazinyl)-6-trifluoromethylpyrimidine] | 75 | 11.5 | 82 | 17.3
21 | Cc1ccc(O)cc1Nc1cc(C(F)(F)F)nc(-c2ccccn2)n1 [Example 188, 4-(5-Hydroxy-2-methylanilino)-2-(2-pyridinyl)-6-trifluoromethylpyrimidine] | 271 | 9.3 | 429 | 3.6
22 | COc1ccc(C)cc1Nc1cc(C(F)(F)F)nc(-c2ccccn2)n1 [Example 190, 4-(2-Methoxy-5-methylanilino)-2-(2-pyridinyl)-6-trifluoromethylpyrimidine] | 32 | 16.7 | 29 | 19.3
23 | Oc1ccc(Cl)cc1Nc1cc(C(F)(F)F)nc(-c2cnccn2)n1 [Example 198, 4-(5-Chloro-2-hydroxyanilino)-2-(2-pyrazinyl)-6-trifluoromethylpyrimidine] | > 5000 | 1.8 | 419 | 3.3
24 | COc1ccc(OC)c(CCNc2cc(C(F)(F)F)nc(-c3cccnc3)n2)c1 [Example 200, 4-(2,5-Dimethoxyphenylethylamino)-2-(3-pyridinyl)-6-trifluoromethylpyrimidine] | > 5000 | 1.4 | > 5000 | 1.2
25 | Cc1cc(Nc2cc(C(F)(F)F)nc(-c3cccnc3)n2)c(C)cc1O [Example 201, 4-(2,5-Dimethyl-4-hydroxyanilino)-2-(3-pyridinyl)-6-trifluoromethylpyrimidine] | 173 | 4.8 | 333 | 15.7
26 | COc1cc(C#N)c(Nc2cc(C(F)(F)F)nc(-c3cccnc3)n2)cc1OC [Example 203, 4-(2-Cyano-4,5-dimethoxyanilino)-2-(3-pyridinyl)-6-trifluoromethylpyrimidine] | 2630 | 3.4 | 843 | 10.7
27 | COc1ccc(Nc2cc(C(F)(F)F)nc(-c3cccnc3)n2)c(OC)n1 [Example 206, 4-(2,6-Dimethoxypyridin-3-ylamino)-2-(3-pyridinyl)-6-trifluoromethylpyrimidine] | 583 | 2.9 | 802 | 6.9
28 | FC(F)(F)c1cc(Nc2cccc3[nH]ccc23)nc(-c2ccccn2)n1 [Example 212, 4-(Indol-4-ylamino)-2-(2-pyridinyl)-6-trifluoromethylpyrimidine] | 2780 | 6.1 | 3110 | 5.8
29 | Cc1cc2cc(Nc3cc(C(F)(F)F)nc(-c4cccnc4)n3)ccc2[nH]1 [Example 213, 4-(2-Methyl-indol-5-ylamino)-2-(3-pyridinyl)-6-trifluoromethylpyrimidine] | 1770 | 9.9 | 2680 | 14.1
